Measured values reported in article PMC13308190, “Endothelial progenitor cell susceptibility to DNA damaging and DDR-modulating compounds determines endothelial differentiation accuracy” (Stem Cell Research & Therapy, 2026).

Tests used:
mESC [1] = assay: DNA fiber spreading assay; type: cell-based, mouse; conditions: mESC 24 h; HU: 5 mM, 1 h
Experimental: (§1) To analyze DNA replication fork progression, the DNA fiber spreading assay was performed. Briefly, cells were pulse-labeled with 20 µM CldU (20 min, 37 °C, 5% C0_2) and immediately afterwards with 200 µM IdU (20 min, 37 °C, 5% C02). Cell suspension was applied onto glass slides followed by cell lysis (0.5% SDS, 200 mM Tris–HCl, 50 mM EDTA). After incubation (6 min, RT), slides were tilted upwards to stretch the fibers, dried 6 min lying horizontally flat and fixed (5 min, RT) in methanol: acetic acid (3:1). After drying (7 min, lying horizontally flat) slides were stored overnight in 70% ethanol (4 °C). The next day samples were incubated in 100% methanol (5 min, RT) followed by denaturation in 2.5 M HCl (1 h, RT) and blocking (5% BSA in PBS, 1 h, 37 °C). DNA Fibers were stained with rat anti-BrdU (1:40) for CldU detection and mouse anti-BrdU (1:70) for IdU detection (in 0.5% BSA/PBS; 1 h, RT). After washing (0.05% Tween 20 in PBS and PBS) incubation with secondary antibodies anti-rat 488 (1:400) and anti-mouse 555 (1:250) was performed (1 h, RT, 0.5% BSA in PBS). Following washing with 0.05% Tween 20 in PBS and PBS, the slides were mounted with Fluoroshield (Sigma [Steinheim, Germany]). DNA fibers were analyzed microscopically (Olympus BX43 fluorescence microscope [40 objective]). The length of CldU (green) and IdU (red) tract was measured using ImageJ software, analyzing 200 fibers per experimental condition.

EC d4 [2] = assay: DNA fiber spreading assay; type: cell-based, mouse; conditions: EC d4 48 h; HU: 5 mM, 1 h
Experimental: as §1

[3] = system: primary murine cardiac endothelial cells; assay: RT-qPCR mRNA expression; type: cell-based, mouse
Experimental: Total RNA was purified using the RNeasy Mini Kit (Qiagen, Hilden, Germany). Reverse transcriptase (RT) reaction was performed with the HighCapacity cDNA Reverse Transcription Kit (Applied Biosystems, Darmstadt, Germany) using 900–2000 ng of RNA. Quantitative RT-qPCR analysis was performed using following conditions: (1) 95 °C–10 min; (2) 45 amplification cycles with 95 °C–15 s, 55 °C–15 s, and 72 °C–17 s; (3) 95 °C–1 min, 55 °C–1 min, 65 °C–5 s. If not stated otherwise, analyses were performed in technical triplicates using pooled samples from two independent experiments (each performed with biological duplicates) by use of a CFX96 cycler (BioRad) and the SensiMix SYBR Kit (Bioline, London, UK). The primers used for mRNA expression analyses are listed in Supplementary Table 1. To ensure the specificity of the amplification product, melting curves were recorded at the end of the run. mRNA expression levels were normalized to β-Actin and Gapdh. Relative mRNA expression in mESC or corresponding untreated controls was set to 1.0. Only changes in gene expression of ≤ 0.5- and ≥ 2-fold were considered as biologically relevant. Fold-changes in gene expression are summarized in Supplementary Table 2.

mESC [4] = assay: Alkaline comet assay; conditions: mESC 24 h
EC d6 [5] = assay: EdU incorporation (S-phase activity); type: cell-based, mouse; conditions: EC d6 24 h; Dox up to 0.1 µM
EC d6 [6] = assay: Alkaline comet assay; conditions: EC d6 24 h
EC d6 [7] = assay: Nuclear γH2AX / 53BP1 foci (DSB); conditions: EC d6 24 h, equitoxic concentrations
EC d4 [8] = assay: Mitochondrial membrane potential (TMRM-MitoTracker Green); type: cell-based, mouse; conditions: EC d4 treated 48 h, analysed in EC d6; Dox 0.05 µM
Experimental: Mitochondrial membrane potential (ΔΨm) was analyzed by live-cell imaging using TMRM-MitoTracker Green co-staining. Cells were seeded and differentiated on Poly-D-Lysine-fibronectine-coated live-imaging dishes. For staining, cells were incubated with 200nM MitoTracker Green (Invitrogen) and 50 nM TMRM (Invitrogen) in DMEM (30 min, 37 °C, 5% CO2). After washing with PBS, live-cell microscopy was performed using a spinning disc confocal microscope (PerkinElmer) equipped with a 60x oil-immersion objective (N.A = 1.49) and a Hamamatsu C9100 camera (1000 × 1000 pixel) (excitation (MitoTracker Green): 488 nm, excitation (TMRM): 561 nm). The cells were kept at 37 °C in OptiMEM supplemented with 10 mM HEPES during imaging. The images were obtained at emission wavelength of 527 nm (W55) and 615 nm (W70) for 488 nm and 561 nm excitation, respectively.

EC d4 [9] = assay: Doxorubicin import/export (flow cytometry); type: cell-based, mouse; conditions: EC d4, 2 h pulse then 6 h post-incubation
Experimental: Import and export of Dox were examined via flow cytometry. […] Trypsinized cells were washed with PBS and pelleted by centrifugation (200 x g, 5 min, 4 °C). After additional washing, cells were resuspended in PBS.

EC d4 [10] = assay: Alkaline comet assay; conditions: EC d4 48 h

SMILES: Nc1ccccc1NC(=O)c1ccc(CNC(=O)OCc2cccnc2)cc1 [EST, entinostat]
- replication fork progression (mESC [1]): promoted new DNA strand synthesis
- replication fork progression (EC d4 [2]): opposite effects

SMILES: COc1cccc2c1C(=O)c1c(O)c3c(c(O)c1C2=O)C[C@@](O)(C(=O)CO)C[C@@H]3O[C@H]1C[C@H](N)[C@H](O)[C@H](C)O1 [Dox, doxorubicin]
- Ccn1a mRNA ([3]; 1 µM, 24 h, Fig 7E): 0.52 Fold of untreated control
- Ccnd2 mRNA ([3]; 1 µM, 24 h, Fig 7E): 2.92 Fold of untreated control
- Cdkn1a mRNA ([3]; 1 µM, 24 h, Fig 7E): 12.45 Fold of untreated control
- Cdkn2a mRNA ([3]; 1 µM, 24 h, Fig 7E): 2.56 Fold of untreated control
- Cxc1 mRNA ([3]; 1 µM, 24 h, Fig 7E): 10.16 Fold of untreated control
- E2f1 mRNA ([3]; 1 µM, 24 h, Fig 7E): 0.54 Fold of untreated control
- Glb1 mRNA ([3]; 1 µM, 24 h, Fig 7E): 2.10 Fold of untreated control
- Il6 mRNA ([3]; 1 µM, 24 h, Fig 7E): 16.90 Fold of untreated control
- Il8 mRNA ([3]; 1 µM, 24 h, Fig 7E): 2.54 Fold of untreated control
- Mmp3 mRNA ([3]; 1 µM, 24 h, Fig 7E): 1.42 Fold of untreated control
- Mybl2 mRNA ([3]; 1 µM, 24 h, Fig 7E): 0.053 Fold of untreated control
- Tp53 mRNA ([3]; 1 µM, 24 h, Fig 7E): 1.66 Fold of untreated control
- upregulation of Il6, Cxc1 and Cdkn1a mRNA ([3]; Dox 24 h): about 10 fold
- steady-state level of SSB (alkaline comet assay) (mESC [4]): significant increase
- number of EdU-positive cells (EC d6 [5]): remained unaffected
- steady-state level of SSB (alkaline comet assay) (EC d6 [6]): no or only a minor increase
- replication fork progression (mESC [1]): accelerated fork progression
- DSB formation (γH2AX / 53BP1 foci) (EC d6 [7]): significant increase
- mitochondrial membrane potential (EC d4 [8]): strongest drop in mitochondrial membrane potential
- Dox efflux capacity as compared to the other differentiation stages (EC d4 [9]): enhanced export activity
- steady-state level of SSB (alkaline comet assay) (EC d4 [10]): no or only a minor increase
